This is an account of results in publication PMC5218480 (PLoS ONE, 2017).

The structures appear in SMILES notation.

The experiment deals with MV-4-11 cells. Description: Gene expression microarray analysis (Affymetrix PrimeView) and GSEA. Also on record: RFU PODN (11730768_x_at) / Fold change /veh PODN (11730768_x_at) / RFU LINC00158 (11744669_a_at) / Fold change /veh LINC00158 (11744669_a_at) / RFU DUSP10 (11751237_a_at) / Fold change /veh DUSP10 (11751237_a_at) / RFU ID3 (11757404_x_at) / Fold change /veh ID3 (11757404_x_at) / RFU PLEKHG5 (11737974_s_at) / Fold change /veh PLEKHG5 (11737974_s_at) / RFU LRRC4B (11730491_at) / Fold change /veh LRRC4B (11730491_at) / RFU GIMAP4 (11747438_a_at) / Fold change /veh GIMAP4 (11747438_a_at) / RFU KRT8 (11758183_x_at) / Fold change /veh KRT8 (11758183_x_at) / RFU CNN1 (11734310_a_at) / Fold change /veh CNN1 (11734310_a_at) / RFU VPS37D (11726825_at) / Fold change /veh VPS37D (11726825_at) / RFU C10orf10 (11716522_x_at) / Fold change /veh C10orf10 (11716522_x_at) / RFU KIR2DL2 /// KIR2DL4 /// KIR2DL5A /// KIR2DL5B /// KIR2DS1 /// KIR2DS2 /// KIR2DS3 /// KIR2DS4 /// KIR3DL3 /// KIR3DL3 /// KIR3DS1 (11738374_at) / Fold change /veh KIR2DL2 /// KIR2DL4 /// KIR2DL5A /// KIR2DL5B /// KIR2DS1 /// KIR2DS2 /// KIR2DS3 /// KIR2DS4 /// KIR3DL3 /// KIR3DL3 /// KIR3DS1 (11738374_at) / RFU C1QL1 (11718748_at) / Fold change /veh C1QL1 (11718748_at) / RFU TMPRSS4 (11747572_a_at) / Fold change /veh TMPRSS4 (11747572_a_at) / RFU HAMP (11756126_x_at) / Fold change /veh HAMP (11756126_x_at) / RFU RNFT2 (11725882_a_at) / Fold change /veh RNFT2 (11725882_a_at) / RFU NR4A2 (11747474_a_at) / Fold change /veh NR4A2 (11747474_a_at) / RFU ABCC12 (11746883_a_at) / Fold change /veh ABCC12 (11746883_a_at) / RFU TMEM136 (11760407_x_at) / Fold change /veh TMEM136 (11760407_x_at) / RFU CLDN22 /// WWC2 (11732394_at) / Fold change /veh CLDN22 /// WWC2 (11732394_at) / RFU HLA-DPB1 (11760878_x_at) / Fold change /veh HLA-DPB1 (11760878_x_at) / RFU SPINT1 (11716480_a_at) / Fold change /veh SPINT1 (11716480_a_at) / RFU GAP43 (11754022_s_at) / Fold change /veh GAP43 (11754022_s_at) / RFU A4GNT (11735810_at) / Fold change /veh A4GNT (11735810_at) / RFU PRB3 (11715151_x_at) / Fold change /veh PRB3 (11715151_x_at) / RFU TUBB4B (11761932_at) / Fold change /veh TUBB4B (11761932_at) / RFU CAPN14 (11732068_a_at) / Fold change /veh CAPN14 (11732068_a_at) / RFU TMCC2 (11721928_a_at) / Fold change /veh TMCC2 (11721928_a_at) / RFU IRGQ (11745062_a_at) / Fold change /veh IRGQ (11745062_a_at) / RFU FAM174B (11720279_a_at) / Fold change /veh FAM174B (11720279_a_at) / RFU TMPRSS4 (11748680_a_at) / Fold change /veh TMPRSS4 (11748680_a_at) / RFU FAM212B (11763350_a_at) / Fold change /veh FAM212B (11763350_a_at) / RFU PLEKHG5 (11743358_a_at) / Fold change /veh PLEKHG5 (11743358_a_at) / RFU ZSCAN30 (11745921_a_at) / Fold change /veh ZSCAN30 (11745921_a_at) / RFU CMKLR1 (11741424_a_at) / Fold change /veh CMKLR1 (11741424_a_at) / RFU LOC101060620 /// MAPK8IP1 (11723275_at) / Fold change /veh LOC101060620 /// MAPK8IP1 (11723275_at) / RFU SPTSSB (11747773_x_at) / Fold change /veh SPTSSB (11747773_x_at) / RFU PRSS12 (11739890_at) / Fold change /veh PRSS12 (11739890_at) / RFU BIN1 (11741810_x_at) / Fold change /veh BIN1 (11741810_x_at) / RFU WNT11 (11732464_a_at) / Fold change /veh WNT11 (11732464_a_at) / RFU C10orf10 (11716521_a_at) / Fold change /veh C10orf10 (11716521_a_at) / RFU C5orf56 (11738089_at) / Fold change /veh C5orf56 (11738089_at) / RFU CYB561 (11721691_x_at) / Fold change /veh CYB561 (11721691_x_at) / RFU ANKRD19P (11752326_a_at) / Fold change /veh ANKRD19P (11752326_a_at) / RFU OR2T12 /// OR2T33 /// OR2T8 (11738714_s_at) / Fold change /veh OR2T12 /// OR2T33 /// OR2T8 (11738714_s_at) / RFU VCAN (11748164_a_at) / Fold change /veh VCAN (11748164_a_at) / RFU JSRP1 (11732532_at) / Fold change /veh JSRP1 (11732532_at) / RFU KRTAP10-11 (11738290_x_at) / Fold change /veh KRTAP10-11 (11738290_x_at) / RFU MYO3A (11730013_a_at) / Fold change /veh MYO3A (11730013_a_at) / RFU EBF3 (11725865_a_at) / Fold change /veh EBF3 (11725865_a_at) / RFU CAMK2N1 (11719241_x_at) / Fold change /veh CAMK2N1 (11719241_x_at) / RFU C5orf56 (11738088_a_at) / Fold change /veh C5orf56 (11738088_a_at) / RFU OLFML3 (11715873_a_at) / Fold change /veh OLFML3 (11715873_a_at) / RFU LOC100653217 /// NTM (11731650_a_at) / Fold change /veh LOC100653217 /// NTM (11731650_a_at) / RFU MAPK11 (11762145_a_at) / Fold change /veh MAPK11 (11762145_a_at) / RFU FIZ1 (11724087_x_at) / Fold change /veh FIZ1 (11724087_x_at) / RFU OASL (11726364_x_at) / Fold change /veh OASL (11726364_x_at) / RFU SOX15 (11748057_x_at) / Fold change /veh SOX15 (11748057_x_at) / RFU CD79A (11719716_a_at) / Fold change /veh CD79A (11719716_a_at) / RFU HIST1H1D (11736915_at) / Fold change /veh HIST1H1D (11736915_at) / RFU CASKIN2 (11723855_a_at) / Fold change /veh CASKIN2 (11723855_a_at) / RFU LOC730098 (11760151_x_at) / Fold change /veh LOC730098 (11760151_x_at) / RFU OR4N2 (11742367_at) / Fold change /veh OR4N2 (11742367_at) / RFU PRRT2 (11749266_a_at) / Fold change /veh PRRT2 (11749266_a_at) / RFU SNX32 (11753110_a_at) / Fold change /veh SNX32 (11753110_a_at) / RFU CDHR5 (11726645_a_at) / Fold change /veh CDHR5 (11726645_a_at) / RFU RCAN1 (11760418_a_at) / Fold change /veh RCAN1 (11760418_a_at) / RFU FAM167A (11723789_a_at) / Fold change /veh FAM167A (11723789_a_at) / RFU FAM26E (11764081_at) / Fold change /veh FAM26E (11764081_at) / RFU ISYNA1 (11749810_s_at) / Fold change /veh ISYNA1 (11749810_s_at) / RFU ACY1 (11761880_at) / Fold change /veh ACY1 (11761880_at) / RFU 11764098_at / Fold change /veh 11764098_at / RFU SAMD14 (11745864_x_at) / Fold change /veh SAMD14 (11745864_x_at) / RFU NPB (11741838_a_at) / Fold change /veh NPB (11741838_a_at) / RFU TMPRSS6 (11731388_a_at) / Fold change /veh TMPRSS6 (11731388_a_at) / RFU KRTAP10-2 (11738614_at) / Fold change /veh KRTAP10-2 (11738614_at) / RFU ARHGAP8 /// PRR5-ARHGAP8 (11727945_x_at) / Fold change /veh ARHGAP8 /// PRR5-ARHGAP8 (11727945_x_at) / RFU KRTAP5-7 /// NADSYN1 (11734609_at) / Fold change /veh KRTAP5-7 /// NADSYN1 (11734609_at) / RFU RASL12 (11751679_a_at) / Fold change /veh RASL12 (11751679_a_at) / RFU CDKN2B (11736163_a_at) / Fold change /veh CDKN2B (11736163_a_at) / RFU PRF1 (11729649_at) / Fold change /veh PRF1 (11729649_at) / RFU, ZNF638 /// ZNF638-IT1 / Fold change vs veh, ZNF638 /// ZNF638-IT1 / RFU, PANK3 / Fold change vs veh, PANK3 / RFU, SH3YL1 / Fold change vs veh, SH3YL1 / RFU, ZEB2 / Fold change vs veh, ZEB2 / RFU, NRIP1 / Fold change vs veh, NRIP1 / RFU, PTTG1IP / Fold change vs veh, PTTG1IP / RFU, CAPN2 / Fold change vs veh, CAPN2 / RFU, MED14 / Fold change vs veh, MED14 / RFU, SNORA58 / Fold change vs veh, SNORA58 / RFU, C1orf63 / Fold change vs veh, C1orf63 / RFU, LRRFIP1 / Fold change vs veh, LRRFIP1 / RFU, NDUFAF7 / Fold change vs veh, NDUFAF7 / RFU, SLC12A2 / Fold change vs veh, SLC12A2 / RFU, IBTK / Fold change vs veh, IBTK / RFU, ESF1 / Fold change vs veh, ESF1 / Fold change vs veh, TMEM50B / RFU, TAOK1 / Fold change vs veh, TAOK1 / RFU, ACBD3 / Fold change vs veh, ACBD3 / RFU, TMA16 / Fold change vs veh, TMA16 / RFU, RWDD3 / Fold change vs veh, RWDD3 / RFU, BCAT1 / Fold change vs veh, BCAT1 / RFU, EDEM3 / Fold change vs veh, EDEM3 / RFU, TMEM33 / Fold change vs veh, TMEM33 / RFU, WDR75 / Fold change vs veh, WDR75 / RFU, AHCTF1 / Fold change vs veh, AHCTF1 / RFU, TFRC / Fold change vs veh, TFRC / RFU, ZDHHC17 / Fold change vs veh, ZDHHC17 / RFU, NOM1 / Fold change vs veh, NOM1 / RFU, ARL8B / Fold change vs veh, ARL8B / RFU, ZBTB11 / Fold change vs veh, ZBTB11 / RFU, TAMM41 / Fold change vs veh, TAMM41 / RFU, KIAA1704 /// LOC100996395 / Fold change vs veh, KIAA1704 /// LOC100996395 / RFU, ING1 / Fold change vs veh, ING1 / RFU, TRMT61B / Fold change vs veh, TRMT61B / RFU, FUBP3 / Fold change vs veh, FUBP3 / RFU, TP53 / Fold change vs veh, TP53 / RFU, TNKS2 / Fold change vs veh, TNKS2 / RFU, ZFP14 / Fold change vs veh, ZFP14 / RFU, ACTR2 / Fold change vs veh, ACTR2 / RFU, PPP3R1 / Fold change vs veh, PPP3R1 / RFU, PIK3R1 / Fold change vs veh, PIK3R1 / RFU, HNRNPA1 / Fold change vs veh, HNRNPA1 / RFU, RNF170 / Fold change vs veh, RNF170 / RFU, ZNF28 / Fold change vs veh, ZNF28 / RFU, RNGTT / Fold change vs veh, RNGTT / RFU, OGT / Fold change vs veh, OGT / RFU, BRD1 / Fold change vs veh, BRD1 / RFU, MARS / Fold change vs veh, MARS / RFU, ZNF655 / Fold change vs veh, ZNF655 / RFU, FAHD1 / Fold change vs veh, FAHD1 / RFU, BDP1 / Fold change vs veh, BDP1 / RFU, LRRCC1 / Fold change vs veh, LRRCC1 / RFU, ARID1A / Fold change vs veh, ARID1A / RFU, ZNF146 / Fold change vs veh, ZNF146 / RFU, ZNF330 / Fold change vs veh, ZNF330 / RFU, GPN3 / Fold change vs veh, GPN3 / RFU, C9orf123 / Fold change vs veh, C9orf123 / RFU, N4BP2L2 / Fold change vs veh, N4BP2L2 / RFU, ARFIP1 / Fold change vs veh, ARFIP1 / RFU, FAM179B / Fold change vs veh, FAM179B / RFU, BCL10 / Fold change vs veh, BCL10 / RFU, UHRF1BP1L / Fold change vs veh, UHRF1BP1L / RFU, BET1 / Fold change vs veh, BET1 / RFU, CNOT2 / Fold change vs veh, CNOT2 / RFU, ZNF268 / Fold change vs veh, ZNF268 / Fold change vs veh, ZNF507 / RFU, DGCR2 / Fold change vs veh, DGCR2 / RFU, WDSUB1 / Fold change vs veh, WDSUB1 / Fold change vs veh, HSP90B1 /// MIR3652 / RFU, ADSS / Fold change vs veh, ADSS / RFU, GK / Fold change vs veh, GK / RFU, ZNF148 / Fold change vs veh, ZNF148 / RFU, TAF9 / Fold change vs veh, TAF9 / RFU, SLC1A5 / Fold change vs veh, SLC1A5 / RFU, SLMO2 / Fold change vs veh, SLMO2 / RFU, ABCC4 / Fold change vs veh, ABCC4 / RFU, LOC101060439 /// RAP1B / Fold change vs veh, LOC101060439 /// RAP1B / RFU, RFX7 / Fold change vs veh, RFX7 / RFU, GTPBP10 / Fold change vs veh, GTPBP10 / RFU, CNEP1R1 / Fold change vs veh, CNEP1R1 / RFU, BIVM-ERCC5 /// ERCC5 / Fold change vs veh, BIVM-ERCC5 /// ERCC5 / RFU, ILF3 / Fold change vs veh, ILF3 / RFU 11762660_at / Fold change /veh 11762660_at / RFU VCAN (11757783_s_at) / Fold change /veh VCAN (11757783_s_at) / RFU DDX43 (11728927_at) / Fold change /veh DDX43 (11728927_at) / RFU KRT8 (11758188_x_at) / Fold change /veh KRT8 (11758188_x_at) / RFU NKD1 (11759106_at) / Fold change /veh NKD1 (11759106_at) / RFU SRD5A1 (11742802_a_at) / Fold change /veh SRD5A1 (11742802_a_at) / RFU TPSAB1 /// TPSB2 (11721975_s_at) / Fold change /veh TPSAB1 /// TPSB2 (11721975_s_at) / RFU GSTM3 (11746129_a_at) / Fold change /veh GSTM3 (11746129_a_at) / RFU IL23R (11737362_x_at) / Fold change /veh IL23R (11737362_x_at) / RFU TMEM51 (11727254_a_at) / Fold change /veh TMEM51 (11727254_a_at) / RFU PIWIL2 (11732686_x_at) / Fold change /veh PIWIL2 (11732686_x_at) / RFU ORM1 (11744905_x_at) / Fold change /veh ORM1 (11744905_x_at) / RFU CCDC152 (11743942_at) / Fold change /veh CCDC152 (11743942_at) / RFU ECM1 (11717891_a_at) / Fold change /veh ECM1 (11717891_a_at) / RFU IL23R (11748794_a_at) / Fold change /veh IL23R (11748794_a_at) / RFU TNFAIP8L3 (11732012_x_at) / Fold change /veh TNFAIP8L3 (11732012_x_at) / RFU MBOAT4 (11741988_at) / Fold change /veh MBOAT4 (11741988_at) / RFU 11764193_at / Fold change /veh 11764193_at / RFU TMEM53 (11763286_at) / Fold change /veh TMEM53 (11763286_at) / RFU MAGEB2 (11727129_at) / Fold change /veh MAGEB2 (11727129_at) / RFU TMEM200A (11744735_a_at) / Fold change /veh TMEM200A (11744735_a_at) / RFU CCDC152 (11751479_a_at) / Fold change /veh CCDC152 (11751479_a_at) / RFU FAM211A (11726209_a_at) / Fold change /veh FAM211A (11726209_a_at) / RFU RGS16 (11746705_a_at) / Fold change /veh RGS16 (11746705_a_at) / RFU VCAN (11755009_s_at) / Fold change /veh VCAN (11755009_s_at) / RFU RHOB (11743442_s_at) / Fold change /veh RHOB (11743442_s_at) / RFU RGS16 (11720943_a_at) / Fold change /veh RGS16 (11720943_a_at) / RFU RGS16 (11720944_at) / Fold change /veh RGS16 (11720944_at) / RFU, VPS4B / Fold change vs veh, VPS4B / RFU, CREB1 / Fold change vs veh, CREB1 / RFU, DNAJC13 / Fold change vs veh, DNAJC13 / RFU, GNAQ / Fold change vs veh, GNAQ / RFU, CDK5R1 / Fold change vs veh, CDK5R1 / RFU, ZRANB3 / Fold change vs veh, ZRANB3 / RFU, CUL4A / Fold change vs veh, CUL4A / RFU, CCNY / Fold change vs veh, CCNY / RFU, UFL1 / Fold change vs veh, UFL1 / RFU, COG3 / Fold change vs veh, COG3 / RFU, DIAPH2 / Fold change vs veh, DIAPH2 / RFU, SKA2 / Fold change vs veh, SKA2 / RFU, AFF3 / Fold change vs veh, AFF3 / RFU, LMF1 / Fold change vs veh, LMF1 / RFU, IPO11 / Fold change vs veh, IPO11 / RFU, DFFB / Fold change vs veh, DFFB / RFU, FOXP1 / Fold change vs veh, FOXP1 / RFU, CARD8 / Fold change vs veh, CARD8 / RFU, STRN3 / Fold change vs veh, STRN3 / RFU, ADK / Fold change vs veh, ADK / RFU, RASSF2 / Fold change vs veh, RASSF2 / RFU, WIPF1 / Fold change vs veh, WIPF1 / RFU, LARP1B / Fold change vs veh, LARP1B / RFU, RASA1 / Fold change vs veh, RASA1 / RFU, RB1 / Fold change vs veh, RB1 / RFU, PPFIA1 / Fold change vs veh, PPFIA1 / RFU, MAT2A / Fold change vs veh, MAT2A / RFU, CCT5 / Fold change vs veh, CCT5 / RFU, WDR92 / Fold change vs veh, WDR92 / RFU, CUX1 / Fold change vs veh, CUX1 / RFU, TTC7A / Fold change vs veh, TTC7A / RFU, TMEM135 / Fold change vs veh, TMEM135 / RFU, DEPTOR / Fold change vs veh, DEPTOR / RFU, CPM / Fold change vs veh, CPM / RFU, DNAJB6 / Fold change vs veh, DNAJB6 / RFU, CACNA2D3 / Fold change vs veh, CACNA2D3 / RFU, DTX4 / Fold change vs veh, DTX4 / RFU, TFCP2 / Fold change vs veh, TFCP2 / RFU, GMCL1 /// GMCL1P1 / Fold change vs veh, GMCL1 /// GMCL1P1 / RFU, AEBP2 / Fold change vs veh, AEBP2 / RFU, SNHG1 /// SNORD22 /// SNORD25 /// SNORD26 /// SNORD27 /// SNORD28 /// SNORD29 /// SNORD31 / Fold change vs veh, SNHG1 /// SNORD22 /// SNORD25 /// SNORD26 /// SNORD27 /// SNORD28 /// SNORD29 /// SNORD31 / Fold change (Aza/veh), C12orf56 (ProbeSet 11735607_a_at) / Fold change (ACY-1035/veh), C12orf56 (ProbeSet 11735607_a_at) / Fold change (Aza/veh), FGFR1OP (ProbeSet 11751329_s_at) / Fold change (ACY-1035/veh), FGFR1OP (ProbeSet 11751329_s_at) / Fold change (Aza/veh), VPS36 (ProbeSet 11739960_a_at) / Fold change (ACY-1035/veh), VPS36 (ProbeSet 11739960_a_at) / RFU SYPL1 (11715823_x_at) / Fold change /veh SYPL1 (11715823_x_at) / RFU IGFBP7 (11715501_s_at) / Fold change /veh IGFBP7 (11715501_s_at) / RFU REEP3 (11722064_at) / Fold change /veh REEP3 (11722064_at) / RFU IGLL1 (11728026_x_at) / Fold change /veh IGLL1 (11728026_x_at): dose or concentration left out as unconfirmed. The following applies: ProbeSet 11747937_a_at; LIST D. Format: cell-based, human.

Turning to `Nc1ccc(-c2cccs2)cc1NC(=O)c1ccc2c(c1)cc(C1CC1)n2CCN1CCOCC1` [ACY-1035], the “RFU, DNAJB6” value came out at 348.58 RFU.
